# Measured values as given in ChEMBL document CHEMBL5050850, “Compositions and methods of using the same for treatment of neurodegenerative and mitochondrial disease” (2020).
# Active and inactive are the calls of the source. The rule behind the calls is not given here.
# Experiments:
# HeLa [1] = test: Cytotoxicity against human HeLa MKYP cells assessed as percentage of DAPI-positive cells at 50 uM and measured by DAPI staining method; type: toxicity, cell-based
# [2] = Induction of mitophagy in human HeLa MKYP cells treated at 6.3 uM with FCCP/oligomycin for 6 hrs and measured by FACS analysis relative to control; type: functional
# Mus musculus [3] = test: Protection against preformed alpha-synuclein amyloid fibril (PFF) in C57BL/6 mouse model assessed as decrease in C-terminal truncation of alpha-synuclein in ipsilateral striatum at 5 to 50 mg/kg, po administered daily for 28 days; type: functional, organism-based; conditions: dose 5-50 mg/kg, time 28.0 day
# [4] = target: Serine/threonine-protein kinase PINK1, mitochondrial (Homo sapiens) (UniProt Q9BXM7); test: Activation of PINK1 in human HeLa MKYP PINK1-knock out cells treated with FCCP/oilgomycin assessed as increase in parkin recruitment and measured by ELISA assay; type: cell-based
# Mus musculus [5] = test: Protection against preformed alpha-synuclein amyloid fibril (PFF) in C57BL/6 mouse model assessed as decrease in all species of alpha-synuclein in ventral midbrain at 5 to 50 mg/kg, po administered daily for 28 days; type: functional, organism-based; conditions: dose 5-50 mg/kg, time 28.0 day
# [6] = target: Serine/threonine-protein kinase PINK1, mitochondrial (Homo sapiens) (UniProt Q9BXM7); test: Activation of PINK1 in human iPSC derived neurons at 3.1 to 6.2 uM assessed as reduction in pS129 alpha-synuclein; type: cell-based; conditions: Neuron, filed as activator, dose 3.1-6.2 µM
# Mus musculus [7] = test: Protection against preformed alpha-synuclein amyloid fibril (PFF) in C57BL/6 mouse model assessed as decrease in total monomer of alpha-synuclein in ipsilateral striatum at 5 to 50 mg/kg, po administered daily for 28 days; type: functional, organism-based; conditions: dose 5-50 mg/kg, time 28.0 day
# Mus musculus [8] = test: Protection against preformed alpha-synuclein amyloid fibril (PFF) in C57BL/6 mouse model assessed as decrease in all species of alpha-synuclein in ipsilateral striatum at 5 to 50 mg/kg, po administered daily for 28 days; type: functional, organism-based; conditions: dose 5-50 mg/kg, time 28.0 day
# Mus musculus [9] = test: Protection against preformed alpha-synuclein amyloid fibril (PFF) in C57BL/6 mouse model assessed as decrease in all species of alpha-synuclein in contralateral striatum at 5 to 50 mg/kg, po administered daily for 28 days; type: functional, organism-based; conditions: dose 5-50 mg/kg, time 28.0 day
# [10] = target: Serine/threonine-protein kinase PINK1, mitochondrial (Homo sapiens) (UniProt Q9BXM7); test: Activation of PINK1 in human HeLa cells stably expressing YFP parkin assessed as reduction in dOTC protein accumulation and measured by ornithine carbamoyltransferase (DOTC) assay relative to control; type: cell-based; conditions: filed as activator
# [11] = target: Serine/threonine-protein kinase PINK1, mitochondrial (Homo sapiens) (UniProt Q9BXM7); test: Activation of PINK1 in human HeLa MKYP cells expressing PINK1 treated with FCCP/oilgomycin assessed as increase in pS65 Ub and measured by ELISA assay; type: cell-based; conditions: filed as activator
# [12] = target: Serine/threonine-protein kinase PINK1, mitochondrial (Homo sapiens) (UniProt Q9BXM7); test: Activation of PINK1 in human HeLa MKYP cells expressing PINK1 treated with FCCP/oilgomycin assessed as increase in parkin recruitment and measured by ELISA assay; type: cell-based; conditions: filed as activator
# HeLa [13] = test: Induction of mitophagy in human HeLa MKYP cells expressing wild-type PNIK1 treated with FCCP/oligomycin for 6 hrs and measured by FACS analysis; type: functional, cell-based
# [14] = target: Serine/threonine-protein kinase PINK1, mitochondrial (Homo sapiens) (UniProt Q9BXM7); test: Activation of PINK1 in human HeLa MKYP PINK1-knock out cells treated with FCCP/oilgomycin assessed as increase in pS65 Ub and measured by ELISA assay; type: cell-based
# Mus musculus [15] = test: Protection against preformed alpha-synuclein amyloid fibril (PFF) in C57BL/6 mouse model assessed as decrease in pS129 monomer of alpha-synuclein in ipsilateral striatum at 5 to 50 mg/kg, po administered daily for 28 days; type: functional, organism-based; conditions: dose 5-50 mg/kg, time 28.0 day
# [16] = target: Serine/threonine-protein kinase PINK1, mitochondrial (Homo sapiens) (UniProt Q9BXM7); test: Activation of PINK1 in human HeLa MKYP PINK1-knock out cells at 3.125 to 6.25 uM assessed as reduction in pS129 alpha-synuclein; type: cell-based; conditions: dose 3.125-6.25 µM
# HeLa [17] = test: Induction of mitophagy in human HeLa MKYP PINK1-knockout cells treated with FCCP/oligomycin for 6 hrs and measured by FACS analysis; type: functional, cell-based
# Mus musculus [18] = test: Protection against cisplatin-induced mitochondrial dysfunction in mouse assessed as decrease in GDF15 expression at 20 to 50 mg/kg, po administered daily; type: functional, organism-based; conditions: dose 20-50 mg/kg
# [19] = Induction of mitophagy in human HeLa MKYP cells treated with FCCP/oligomycin for 6 hrs and measured by FACS analysis; type: functional, cell-based
# HeLa [20] = test: Cytotoxicity against human HeLa MKYP cells assessed as cell death at 25 uM treated with FCCP/oliogmycin and measured DAPI staining method assay relative to control; type: toxicity, cell-based
# HeLa [21] = test: Cytotoxicity against human HeLa MKYP cells assessed as cell death at 25 uM and measured DAPI staining method assay relative to control; type: toxicity, cell-based
# [22] = Solubility of compound in PBS; type: physicochemical
# [23] = Ratio of highest compound concentration with no observable mitotoxicity to EC50 of compound to induce mitophagy in human HeLa MKYP cells; type: functional
# Serine/threonine-protein kinase PINK1, mitochondrial (Homo sapiens), sequence (Q9BXM7 whole entry): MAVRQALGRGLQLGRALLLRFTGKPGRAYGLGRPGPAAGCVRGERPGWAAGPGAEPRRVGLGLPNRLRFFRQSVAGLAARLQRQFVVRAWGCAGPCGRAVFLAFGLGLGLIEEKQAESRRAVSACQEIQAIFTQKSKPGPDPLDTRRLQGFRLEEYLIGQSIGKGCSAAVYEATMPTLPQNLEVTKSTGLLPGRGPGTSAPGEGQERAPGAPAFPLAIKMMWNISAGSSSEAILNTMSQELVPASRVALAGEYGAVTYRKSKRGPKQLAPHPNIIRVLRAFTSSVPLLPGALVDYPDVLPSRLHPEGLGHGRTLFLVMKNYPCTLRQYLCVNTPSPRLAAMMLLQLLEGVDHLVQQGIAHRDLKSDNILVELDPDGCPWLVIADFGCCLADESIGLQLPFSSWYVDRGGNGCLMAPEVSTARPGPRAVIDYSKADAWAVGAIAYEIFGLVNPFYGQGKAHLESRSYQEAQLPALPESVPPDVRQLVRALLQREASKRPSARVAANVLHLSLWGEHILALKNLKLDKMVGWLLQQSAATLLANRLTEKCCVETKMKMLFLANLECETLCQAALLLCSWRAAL
EC50 [19] [nM],Structure (SMILES),Activity (HeLa [1]) [%],Activity [2] [%],Activity (HeLa [20]) [%],Activity (HeLa [21]) [%],further results
,CCCCNc1ncnc2[nH]c(C(OCC)C(F)(F)F)cc12 (centres undefined),15.8,17.9,,,
,FC(F)(F)c1cc2c(NC3CCCc4ccccc43)ncnc2[nH]1 (stereo in doubt),,,,,Activity (Mus musculus [3]): Active; Activity [4]: inactive; Activity (Mus musculus [5]): Active; Activity [6]: Active; Activity (Mus musculus [7]): Active; Activity (Mus musculus [8]): Active; Activity (Mus musculus [9]): Active; Activity [10]: Active; Activity [11]: Active; Activity [12]: Active; Activity (HeLa [13]): Active; Activity [14]: inactive; Activity (Mus musculus [15]): Active; Activity [16]: inactive; Activity (HeLa [17]): inactive; Activity (Mus musculus [18]): Active
22100,CO[C@@H]1CCc2ccccc2[C@H]1Nc1ncnc2[nH]c(C(F)(F)F)cc12,18.4,,18.4,15.3,solubility [22]: 1 µM
,FC(F)(F)c1cc2c(NC3COc4ccccc43)ncnc2[nH]1 (centres undefined),39.7,52.5,,,
,FC(F)(F)c1cc2c(NC3CCc4ccccc43)ncnc2[nH]1 (stereo in doubt; 18),1.7,,,,"Activity ([2]; 6 h, 6.3 µM): 14.3%"
,CC(Nc1ncnc2[nH]c(C(F)(F)F)cc12)c1ccccc1 (centres undefined),2.4,88.4,,,
,CCCCNc1ncnc2[nH]c(C(F)(F)F)cc12,4.6,42.3,,,
1480,CO[C@H]1CCc2ccccc2[C@@H]1Nc1ncnc2[nH]c(C(F)(F)F)cc12,7.7,,7.67,5.15,solubility [22]: 1.31 µM
600,C[C@H]1CCc2ccccc2[C@@H]1Nc1ncnc2[nH]c(C(F)(F)F)cc12,13.3,,13.32,3.79,Ratio [23]: 8.69; solubility [22]: 1 µM
,FC(F)(F)c1cc2c(NC3CCCc4ccccc43)ncnc2[nH]1 (stereo in doubt; 16),4.5,,,,"Activity ([2]; 6 h, 6.3 µM): 10.1%"
18500,O[C@H]1Cc2ccccc2[C@@H]1Nc1ncnc2[nH]c(C(F)(F)F)cc12,14.4,,14.4,2.51,Ratio [23]: 1.35
1330,CN1CC[C@H](Nc2ncnc3[nH]c(C(F)(F)F)cc23)c2ccccc21,59,,16,2.51,Ratio [23]: 30
4380,Oc1ccc2c(c1)CCC[C@H]2Nc1ncnc2[nH]c(C(F)(F)F)cc12,11,,11,3.32,
> 50000,OC1CCc2ccccc2C1Nc1ncnc2[nH]c(C(F)(F)F)cc12 (centres undefined),12.8,,12.8,3.79,solubility [22]: 1 µM
1060,Fc1ccc2c(c1)CCCC2Nc1ncnc2[nH]c(C(F)(F)F)cc12 (centres undefined),30.1,,30.1,3.27,solubility [22]: 1 µM
,FC(F)(F)c1cc2c(NCc3ccccc3)ncnc2[nH]1,50.4,35.1,,,
,COc1ccc2c(c1)CCCC2Nc1ncnc2[nH]c(C(F)(F)F)cc12 (centres undefined),95.5,29.8,,,
15100,O[C@@H]1Cc2ccccc2[C@H]1Nc1ncnc2[nH]c(C(F)(F)F)cc12,7.6,,7.59,2.35,Ratio [23]: 1.66
,FC(F)(F)c1cc2c(NC3(c4ccccc4)CC3)ncnc2[nH]1,80.5,20.8,,,
1800,CC[C@@H]1CCc2ccccc2[C@@H]1Nc1ncnc2[nH]c(C(F)(F)F)cc12,8.7,,8.735,5.04,Ratio [23]: 13.8

EC50 [19] [nM],Structure (SMILES),Activity (HeLa [1]) [%],Activity [2] [%],Activity (HeLa [20]) [%],Activity (HeLa [21]) [%],further results
1100,C[C@H]1CCc2ccccc2[C@H]1Nc1ncnc2[nH]c(C(F)(F)F)cc12,12,,12,6.45,Ratio [23]: 7.74
> 50000,O[C@H]1Cc2ccccc2[C@H]1Nc1ncnc2[nH]c(C(F)(F)F)cc12,21.2,,21.2,2.75,
4180,C[C@@H]1CCc2ccccc2[C@H]1Nc1ncnc2[nH]c(C(F)(F)F)cc12,23.8,,23.8,17.9,solubility [22]: 1 µM
,CCCCNc1ncnc2[nH]c(CC(F)(F)F)cc12,24.8,13.9,,,
,CCCCNc1ncnc2[nH]c(-c3ccccc3)cc12,90,52,,,
5500,OC[C@H]1CCc2ccccc2[C@@H]1Nc1ncnc2[nH]c(C(F)(F)F)cc12,30.9,,30.87,9.83,
,CCCCNc1ncnc2[nH]c(CC)cc12,93.4,14,,,
,FC(F)(F)c1cc2c(NC3CCc4ccccc43)ncnc2[nH]1 (stereo in doubt; 17),2.3,,,,"Activity ([2]; 6 h, 6.3 µM): 14.8%"
1100,OC[C@@H]1CCc2ccccc2[C@H]1Nc1ncnc2[nH]c(C(F)(F)F)cc12,59.5,,59.535,27,Ratio [23]: 7.25
,CCCCNc1ncnc2[nH]c(-c3ccnn3C)cc12,94.6,15,,,
6300,FC(F)(F)c1cc2c(N[C@@H]3CCOc4ccccc43)ncnc2[nH]1,21.1,,21,3.04,Ratio [23]: 8.85
,CC(C)(Nc1ncnc2[nH]c(C(F)(F)F)cc12)c1ccccc1,5.6,17,,,
470,c1ccc2c(c1)CCC[C@H]2Nc1ncnc2[nH]c(C3CC3)cc12,16.6,,14.9,9.32,Ratio [23]: 53.2; solubility [22]: 1 µM
2980,N#Cc1cccc2c1CCCC2Nc1ncnc2[nH]c(C(F)(F)F)cc12 (centres undefined),71.2,,71.2,57.1,Ratio [23]: 8.39; solubility [22]: 1 µM
,CCCCNc1ncnc2[nH]c(C)cc12,15.4,43.4,,,
9000,O[C@@H]1Cc2ccccc2[C@@H]1Nc1ncnc2[nH]c(C(F)(F)F)cc12,35.6,,35.6,5.5,
1600,CO[C@@H]1COc2ccccc2[C@@H]1Nc1ncnc2[nH]c(C(F)(F)F)cc12,12.1,,12.11,3.4,
810,CN(C)[C@H]1CCc2ccccc2[C@@H]1Nc1ncnc2[nH]c(C(F)(F)F)cc12,79.3,,79.29,4.33,
4000,CO[C@H]1COc2ccccc2[C@@H]1Nc1ncnc2[nH]c(C(F)(F)F)cc12,15.9,,15.865,3.66,
